Entries after “also recorded” stand apart in the source; their conditions may differ. Positions of bridges follow the written chain, without caps; N, C: chain ends. No end group written: not given here.
Test system: LNCaP human prostate cancer cells
Assay: Smad phosphorylation in LNCaP prostate cancer cells (Western blot)
Assay type: cell-based
Conditions: for Smad 1, 5, 8 phosphorylation on co-administration: TDFRP compound co-administered with BMP-6, LNCaP cells; for Smad phosphorylation and activation: single agent, cultured LNCaP cells
Description: The detection of Smad phosphorylation by Western analysis, for example in LNCaP (prostate cancer cells) or EC (vascular endothelial cells) in culture medium can be examined after exposure to varying concentrations of TDFRP or control compounds. BMP-7 serves as a positive control. Cells are lysed in RIPA lysis buffer (50 mM Tris-HCl at pH 8.0, 150 mM NaCl, 1% NP-40, 0.5% sodium deoxycholate, 0.1% SDS) containing 1 mM PMSF, 1 mM sodium orthovanadate, and 10 ug/mL proteinase inhibitor cocktail. Lysates are incubated on ice for 15 minutes, centrifuged, and transferred supernatant to a clean tube. 50 to 100 ug is used for analysis by SDS-PAGE. Resolved proteins are electro transferred onto PVDF membrane. The blot is blocked by incubating in 3% non-fat dry milk prepared in PBS at room temperature for 1 hour with constant slow agitation. The blot is incubated with 1-2 ug/mL of primary antibody (rabbit anti-phospho-Smad 1) prepared in PBS-milk, overnight with agitation at 4 degree C., washed twice with PBS, and incubated with secondary antibody (anti rabbit HRP conjugated IgG, 1:3000 dilution) at room temperature for 2 hours with agitation. After washing in PBS-0.05% Tween 20 for 5 minutes and rinsing, Smad phosphorylation is detected via an HRP reaction according to manufacturer's instructions (FIGS. 2, 3, 18, 2X).
For detection of Smad phosphorylation by Western analysis, LNCaP (prostate cancer cells) or EC (vascular endothelial cells) in culture medium are exposed to varying concentrations of TDFRP or control compounds. BMP-7 served as a positive control. Cells are lysed in RIPA lysis buffer (50 mM Tris-HCl at pH 8.0, 150 mM NaCl, 1% NP-40, 0.5% sodium deoxycholate, 0.1% SDS) containing 1 mM PMSF, 1 mM sodium orthovanadate, and 10 ug/mL proteinase inhibitor cocktail. Lysates are incubated on ice for 15 minutes, centrifuged, and transferred supernatant to a clean tube. 50 to 100 ug is used for analysis by
SDS-PAGE. Resolved proteins are electro transferred onto PVDF membrane. The blot is blocked by incubating in 3% non-fat dry milk prepared in PBS at room temperature for 1 hour with constant slow agitation. The blot is incubated with 1-2 ug/mL of primary antibody (rabbit anti-phospho-Smad 1) prepared in PBS-milk, overnight with agitation at 4 degree C., washed twice with PBS, and incubated with secondary antibody (anti rabbit HRP conjugated IgG, 1:3000 dilution) at room temperature for 2 hours with agitation. After washing in PBS-0.05% Tween 20 for 5 minutes and rinsing, Smad phosphorylation is detected via an HRP reaction according to manufacturer's instructions (FIGS. 3, 27).
BMP signaling molecules co-administered with TDFRP compounds show synergistic or enhanced downstream signaling as detected by Smad phosphorylation. Smad phosphorylation was assessed by Western analysis in LNCaP (prostate cancer cells) or EC (vascular endothelial cells) cells in culture medium exposed to varying concentrations of TDFRP or control compounds. BMP-7 served as a positive control. Cells are lysed in RIPA lysis buffer (50 mM Tris-HCl at pH 8.0, 150 mM NaCl, 1% NP-40, 0.5% sodium deoxycholate, 0.1% SDS) containing 1 mM PMSF, 1 mM sodium orthovanadate, and 10 ug/mL proteinase inhibitor cocktail. Lysates are incubated on ice for 15 minutes, centrifuged, and transferred supernatant to a clean tube. 50 to 100 ug is used for analysis by SDS-PAGE. Resolved proteins are electro transferred onto PVDF membrane. […]

With “CYFDDSSNVLCKKYRS (disulfide 1-11 (inferred); not fully specified) [SEQ ID NO:45]” the “Smad 1, 5, 8 phosphorylation on co-administration” value was “enhanced”, the “Smad 1, 5, 8 phosphorylation on co-administration” value (listed as SEQ ID NO: 45) was “enhanced or synergistic activity” and the “Smad phosphorylation and activation” value was “induced”. For the same sequence, the “Smad phosphorylation and activation” value (listed as SEQ ID NO: 45) was “phosphorylation and activation of Smad1 and Smad5; also recorded: Smad 1, 5, 8 phosphorylation and activation”.

From patent US8911953B2, “TDF-related compounds and analogs thereof, analogs and bioactive fragments” (Thrasos Innovation, Inc., priority 2005, dated 2014)
